Data set [1] has as its system human pulmonary fibroblasts. The experiment in a line: WST-1 cytotoxicity test (cell viability). Particulars: for cytotoxicity (in words): WST-1, concentrations up to 30 µM; for cytotoxicity at 30 µM (in words): compound at 30 µM.
Procedure: (§1) A WST1 (Roche) reagent assay was used to determine the cytotoxicity of compounds at 24 h of incubation. […] The absorbance was measured at 450 nm.
Data set [2] in a line: WST-1 cytotoxicity test (cell viability). Particulars: human, human pulmonary (lung) fibroblasts. (Tetrazolium dyes change colour on reduction, which living cells bring about.)
Procedure: as §1
In data set [3] the test system is IL-6 production. In words: Inhibition of IL-6 production (ELISA) in IL-1β-stimulated primary human lung fibroblasts. Particulars: for inhibition at 10 µM: read-out: Il-6 % Inhibition 10 µM; for inhibition at 30 µM: read-out: Il-6 % Inhibition 30 µM; for IC50: 0.3-30 µM, n = 4.
Procedure: Primary human lung fibroblasts were cultured in DMEM/F-12 medium (Gibco Waltham, MA, USA) complemented with 10% fetal bovine serum (Gibco), penicillin (50 U/mL, Gibco), streptomycin (50 µg/mL, Gibco), L-glutamine (2 mM, Gibco), non-essential amino acids (0.1 mM, Gibco) and insulin (0.12 U/mL, Lilly, Indianapolis, IN, USA) Cells were used at passage 7.
Data set [4] has as its target T1, human synthetic MSK1 (14-438-K, Millipore) (Homo sapiens, UniProt O75582).
T1 construct: purchased Millipore 14-438-K
The experiment in a line: MSK1 enzymatic inhibition assay (Kinase-Glo luminescence). The class given is biochemical. Particulars: for inhibition at 1 µM: compound at 1 µM, read-out: MSK1 % Inhibition 1 µM; for inhibition at 1 µM / inhibition at 10 µM / IC50: ± Standard Deviation (n = 4); for inhibition at 10 µM: compound at 10 µM, read-out: MSK1 % Inhibition 10 µM; for IC50: 8 concentrations 0.03-100 µM, read-out: MSK1 IC50; for MSK1 inhibitory activity (in words): tested at 1 and 10 µM. Here is the method:
All results are summarized in Table 1, Table 2, Table 3, Table 4 and Table 5 and on Figure 4. […]
An orthogonal luminescence-based assay Kinase-Glo® (Promega, Madison, WI, USA) was used to validate the hits, quantifying the amount of the remaining ATP in the solution following the kinase reaction. Enzymatic reactions were performed up to 4h at room temperature in presence of 3 µM ATP. All compounds were tested in quadruplicates at 1 µM and 10 µM. […] Luminescence was measured with EnVision Plate Reader (Perkin Elmer).
(Kinase-Glo reads ATP consumption through a luciferase reaction.)

[5] abbreviates: Homo sapiens, Fibroblast, read-out: Il-6 IC50 (µM), IL-1β stimulation.

Where a name gives a salt, the structure may show the parent alone. Read-outs that look alike come from different tables or passages of the source.

T1 sequence (O75582 whole entry): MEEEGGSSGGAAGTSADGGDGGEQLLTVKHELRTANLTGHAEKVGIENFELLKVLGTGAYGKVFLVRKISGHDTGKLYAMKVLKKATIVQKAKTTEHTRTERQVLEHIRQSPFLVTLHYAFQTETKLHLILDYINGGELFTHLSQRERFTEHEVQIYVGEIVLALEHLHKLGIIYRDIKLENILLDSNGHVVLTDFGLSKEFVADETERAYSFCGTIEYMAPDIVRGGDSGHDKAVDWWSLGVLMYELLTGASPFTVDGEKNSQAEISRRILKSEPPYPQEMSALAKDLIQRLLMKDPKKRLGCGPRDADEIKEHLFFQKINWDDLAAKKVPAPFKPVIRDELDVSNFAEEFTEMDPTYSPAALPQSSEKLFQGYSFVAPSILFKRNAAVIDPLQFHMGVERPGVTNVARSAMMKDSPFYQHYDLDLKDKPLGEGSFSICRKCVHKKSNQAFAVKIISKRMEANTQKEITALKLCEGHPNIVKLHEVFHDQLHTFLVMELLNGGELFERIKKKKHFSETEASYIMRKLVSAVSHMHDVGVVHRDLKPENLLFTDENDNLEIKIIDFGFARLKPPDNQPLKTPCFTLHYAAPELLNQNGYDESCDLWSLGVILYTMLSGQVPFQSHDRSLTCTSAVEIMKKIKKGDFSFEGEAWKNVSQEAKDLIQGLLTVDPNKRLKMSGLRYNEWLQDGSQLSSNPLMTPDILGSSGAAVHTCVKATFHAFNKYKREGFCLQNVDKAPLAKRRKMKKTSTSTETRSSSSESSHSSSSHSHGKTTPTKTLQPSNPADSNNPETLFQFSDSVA

Regarding `N=C(N)Nc1cccc(-c2ccccc2)n1` [Compound 1a, 1-(6-phenylpyridin-2-yl)guanidine], the “cytotoxicity (in words)” value in data set [1] is listed as “non-toxic”. Further, in data set [2], the viability at 24 h, 10 µM was found to be 122 ± 14% and the viability at 24 h, 30 µM was 103 ± 5%. Further, in data set [3] (Homo sapiens, Fibroblast), the inhibition at 10 µM is 17 ± 7% and the inhibition at 30 µM was determined as 60 ± 4%. Besides, the IC50 in data set [3] (setting [5]) amounted to 16.3 ± 6.1 µM. Also, in data set [4], the inhibition at 1 µM came out at 4 ± 4%, the inhibition at 10 µM is 42 ± 9% and the IC50 was 17.9 ± 3.9 µM.

Take `N=C(N)Nc1cccc(-c2ccoc2)n1.O=C(O)C(F)(F)F` [Compound 1g, 1-[6-(Furan-3-yl)pyridin-2-yl] guanidinium trifluoroacetate]: the melting point lay within 219 to 221 °C. Moreover, in data set [4], the inhibition at 10 µM worked out at 33 ± 8% and the IC50 was over 30 µM.

`N=C(N)Nc1cccc(-c2cc3ccccc3o2)n1.O=C(O)C(F)(F)F` [Compound 1h, 1-[6-(1-Benzofuran-2-yl)pyridin-2-yl] guanidinium trifluoroacetate] displayed a melting point of 269 to 270 °C. Besides, in data set [4], the inhibition at 10 µM stood at 1 ± 6% and the “MSK1 inhibitory activity (in words)” value was “totally inactive”.

On to `N=C(N)Nc1cccc(-c2ccccc2F)n1` [Compound 1j, 1-[6-(2-Fluorophenyl)pyridin-2-yl] guanidiniumtrifluoroacetate], for which, in data set [1], the “cytotoxicity (in words)” value is “cytotoxic” and the “cytotoxicity at 30 µM (in words)” value is given as “cytotoxic”. In data set [2], the viability at 24 h, 10 µM was found to be 100 ± 8% and the viability at 24 h, 30 µM stood at 41 ± 9%. Moreover, the inhibition at 10 µM in data set [3] (Homo sapiens, Fibroblast) worked out at 42 ± 4%. Further, in data set [4], the inhibition at 1 µM turned out to be 6 ± 3%, the inhibition at 10 µM was found to be 45 ± 9% and the IC50 is 5 ± 0.5 µM.

In the case of `N=C(N)Nc1cccc(-c2ccccc2C(F)(F)F)n1.O=C(O)C(F)(F)F` [Compound 1m, 1-[6-(2-Trifluoromethylphenyl)pyridin-2-yl] guanidinium trifluoroacetate], the melting point is 157 to 158 °C. In addition, in data set [4], the inhibition at 1 µM came out at 4 ± 2%, the inhibition at 10 µM came out at 38 ± 9% and the IC50 came out at 8.1 ± 1.2 µM.

In turn, `N=C(N)Nc1cccc(-c2cccc(Cl)c2Cl)n1.O=C(O)C(F)(F)F` [Compound 1o, 1-[6-(2,3-Dichlorophenyl)pyridin-2-yl] guanidinium trifluoroacetate] showed a melting point of 190 to 191 °C. Moreover, in data set [4], the inhibition at 1 µM is 7 ± 3%, the inhibition at 10 µM is 71 ± 13% and the IC50 amounted to 2.3 ± 0.3 µM.

With `N=C(N)Nc1cccc(-c2cc(Cl)ccc2Cl)n1` [Compound 1q, 1-[6-(2,5-Dichlorophenyl)pyridin-2-yl] guanidiniumtrifluoroacetate], the “cytotoxicity (in words)” value in data set [1] is given as “cytotoxic”. Besides, in data set [2], the viability at 24 h, 10 µM stood at 31 ± 19% and the viability at 24 h, 30 µM turned out to be 13 ± 1%. In addition, in data set [4], the inhibition at 1 µM is 23 ± 6%, the inhibition at 10 µM is 84 ± 4% and the IC50 was 0.9 ± 0.1 µM.

Consider `NC1=Nc2cccc(-c3ccccc3)c2CN1` [Compound 37a], for which, in data set [2], the viability at 24 h, 10 µM came out at 122 ± 14% and the viability at 24 h, 30 µM was found to be 103 ± 5%. In data set [3] (Homo sapiens, Fibroblast), the inhibition at 10 µM came out at 18 ± 7% and the inhibition at 30 µM is 23 ± 6%. Also, the half-inhibitory concentration (IC50) in data set [3] (setting [5]) was over 30 µM. Besides, in data set [3] (read-out: Il-6 IC50, IL-1β stimulation), the IC50 was over 30 µM. In data set [4], the inhibition at 1 µM is -19 ± 1%, the inhibition at 10 µM is 44 ± 1% and the IC50 was 15.8 ± 3.2 µM.

For `Br.NC1=Nc2cccc(-c3ccc(Cl)cc3)c2CN1` [Compound 37b, 5-(4-Chlorophenyl)-3,4-dihydroquinazolin-2-amine Hydrobromide], the melting point was in the range of 196 to 197 °C. Besides, in data set [4], the inhibition at 1 µM was -9 ± 2% and the inhibition at 10 µM amounted to 0%.

`Br.NC1=Nc2cccc(-c3cccc(Cl)c3)c2CN1` [Compound 37d, 5-(3-Chlorophenyl)-3,4-dihydroquinazolin-2-amine Hydrobromide] registered a melting point of 228 to 230 °C. In addition, in data set [4], the inhibition at 1 µM is -5 ± 4% and the inhibition at 10 µM amounted to 10 ± 7%.

Turning to `Br.COc1cccc(-c2cccc3c2CNC(N)=N3)c1` [Compound 37e, 5-(3-Methoxyphenyl)-3,4-dihydroquinazolin-2-amine Hydrobromide], the melting point is 198 to 199 °C. Besides, in data set [4], the inhibition at 1 µM was -6 ± 4% and the inhibition at 10 µM turned out to be 3 ± 7%.

The compound `Br.NC1=Nc2cccc(-c3ccccc3Cl)c2CN1` [Compound 37f, 5-(2-Chlorophenyl)-3,4-dihydroquinazolin-2-amine Hydrobromide] registered a melting point of 178 to 179 °C. In addition, the “cytotoxicity at 30 µM (in words)” value in data set [1] was “cytotoxic”. Further, in data set [2], the viability at 24 h, 10 µM is 100 ± 8% and the viability at 24 h, 30 µM was determined as 41 ± 9%. Further, the inhibition at 10 µM in data set [3] (Homo sapiens, Fibroblast) amounted to 17 ± 5%. Further, in data set [4], the inhibition at 1 µM is 0%, the inhibition at 10 µM was 38 ± 4% and the IC50 was 16.4 ± 4 µM.

In turn, `Br.COc1ccccc1-c1cccc2c1CNC(N)=N2` [Compound 37g, 5-(2-Methoxyphenyl)-3,4-dihydroquinazolin-2-amine Hydrobromide] registered a melting point of 226 to 229 °C. Further, in data set [4], the inhibition at 1 µM was -14 ± 3% and the inhibition at 10 µM was -5 ± 1%.

On to `Nc1nc2c(-c3ccccc3)cccc2[nH]1` [Compound 49a, 4-Phenyl-1H-benzo[d]imidazol-2-amine hydrobromide], for which, in data set [2], the viability at 24 h, 10 µM worked out at 93 ± 17% and the viability at 24 h, 30 µM stood at 91 ± 15%. In addition, in data set [3] (Homo sapiens, Fibroblast), the inhibition at 10 µM amounted to 12 ± 4% and the inhibition at 30 µM turned out to be 22 ± 1%. Besides, the IC50 in data set [3] (setting [5]) was over 30 µM. For the same compound, in data set [4], the inhibition at 1 µM amounted to 5 ± 3%, the inhibition at 10 µM worked out at 46 ± 6% and the IC50 was determined as 3.6 ± 0.5 µM.

`Br.Nc1nc2c(-c3ccc(Cl)cc3)cccc2[nH]1` [Compound 49b, 4-(4-Chlorophenyl)-1H-benzo[d]imidazol-2-amine Hydrobromide] gave a melting point of 254 to 256 °C. Besides, in data set [4], the inhibition at 1 µM is -3 ± 6% and the inhibition at 10 µM was 49 ± 9%.

`Br.COc1ccc(-c2cccc3[nH]c(N)nc23)cc1` [Compound 49c, 4-(4-Methoxyphenyl)-1H-benzo[d]imidazol-2-amine Hydrobromide] displayed a melting point of 218 to 220 °C. Further, in data set [4], the inhibition at 1 µM is -2 ± 6% and the inhibition at 10 µM came out at 25 ± 5%.

`Br.Nc1nc2c(-c3cc(Cl)ccc3Cl)cccc2[nH]1` [Compound 49f, 4-(2,5-Dichlorophenyl)-1H-benzo[d]imidazol-2-amine Hydrobromide] showed a melting point of 202 to 205 °C. Moreover, in data set [4], the inhibition at 1 µM was found to be 6 ± 3%, the inhibition at 10 µM came out at 61 ± 5% and the 50% inhibitory concentration (IC50) worked out at 6.8 ± 0.8 µM.

In the case of `Br.COc1ccccc1-c1cccc2[nH]c(N)nc12` [Compound 49g, 4-(2-Methoxyphenyl)-1H-benzo[d]imidazol-2-amine Hydrobromide], the melting point was in the range of 61 to 66 °C. For the same compound, in data set [4], the inhibition at 1 µM is -3 ± 5% and the inhibition at 10 µM was found to be 39 ± 7%.

In the case of `CCCNC1=Nc2cccc(-c3ccccc3)c2CN1` [Compound 60a], the melting point is 70 to 72 °C. In addition, in data set [4], the inhibition at 1 µM was determined as 0%, the inhibition at 10 µM was found to be 2 ± 3% and the “MSK1 inhibitory activity (in words)” value is on record as “inactivity”.

In the case of `c1ccc(NC2=Nc3cccc(-c4ccccc4)c3CN2)cc1` [Compound 60b], the melting point was in the range of 77 to 82 °C. In data set [4], the inhibition at 1 µM was -2 ± 1%, the inhibition at 10 µM was determined as 1 ± 2% and the “MSK1 inhibitory activity (in words)” value is recorded as “inactivity”.

On to `O=S(=O)(NCCNC/C=C/c1ccc(Br)cc1)c1cccc2cnccc12` [Compound H89, H89, reference compound], for which, in data set [3] (Homo sapiens, Fibroblast), the inhibition at 10 µM was found to be 38 ± 5% and the inhibition at 30 µM worked out at 96 ± 1%. Moreover, the IC50 in data set [3] (setting [5]) came out at 10.5 ± 5.1 µM. Further, in data set [4], the inhibition at 1 µM was determined as 80 ± 8%, the inhibition at 10 µM stood at 93 ± 10% and the 50% inhibitory concentration (IC50) came out at 0.25 ± 0.06 µM.

On to `O=S(=O)(c1cccc2cnccc12)N1CCCNCC1` [Fasudil, fasudil, reference compound], for which, in data set [3] (Homo sapiens, Fibroblast), the inhibition at 10 µM turned out to be 38 ± 6% and the inhibition at 30 µM turned out to be 81 ± 6%. Moreover, the IC50 in data set [3] (setting [5]) worked out at 8.5 ± 5.1 µM. Besides, in data set [4], the inhibition at 1 µM came to 50 ± 10% and the inhibition at 10 µM was found to be 82 ± 10%.

Broadly, the viability is a read-out of living cells in per cent, often relative to untreated cells. In general, inhibition refers to the change of the read-out against control, counted positive when it falls. For orientation: IC50 means the midpoint of a concentration-inhibition curve. In general, melting point refers to the temperature, or range, at which the solid turns liquid.

For the origin of these results see article PMC7828447, “Design, Synthesis and Biological Evaluation of Arylpyridin-2-yl Guanidine Derivatives and Cyclic Mimetics as Novel MSK1 Inhibitors. An Application in an Asthma Model” (Molecules, 2021).
